Measured values taken from US20240240224A1, “FLUORESCENT D-TYPE AMINO ACID METABOLISM MARKER-BASED METHOD FOR DETECTING ANTIBACTERIAL DRUG SENSITIVITY TEST” (priority 2020, published 2024).
Values after ≈ are worked out from the molar mass of the structure shown.

Experiments:
S. aureus ATCC29213 [1] = experiment: BMD susceptibility test; assay type: cell-based, Staphylococcus aureus; conditions: unit assumed
E. faecalis ATCC29212 [2] = conditions: cited from earlier work
S. aureus ATCC29213 [3] = conditions: cited from earlier work
S. aureus ST398 [4] = experiment: Vitek 2 drug sensitivity test; assay type: cell-based, Staphylococcus aureus; on Sensibility: key: S: Drug sensitive; R: Drug resistance
E. faecium Ef28 [5] = experiment: FaAST (FDAA metabolic labeling method); assay type: cell-based, Enterococcus faecium; conditions: unit assumed
Description: Take the colony to be tested that has been cultured overnight on the plate and fully mix it in normal saline to make a uniform bacterial solution. Dilute it into Cation-Adjusted Mueller Hinton Broth (CAMHB) culture medium to make a bacterial solution with OD600=0.05. • 2. Add 45 μl antibiotic solutions of different concentrations to 96-well plates (see Table 1 for antibiotic concentration gradient settings). • 3. Add 50 μl of the bacterial solution prepared in step 1 to the 96-well plate and mix well. • 4. Add 5 μl of 10 mM Cy5-DAA probe (final concentration 0.15 mM, see FIG. 1 for its structure) into each well, mix well, and cultivate in dark for 2 hours. • 5. Add 200 μl After PBS solution is diluted, the fluorescence intensity of each sample is detected by flow cytometry. […] The MIC (minimum inhibitory concentration) can be obtained by referring to this curve.

S. aureus ST5 [6] = experiment: FDAA metabolic labeling susceptibility test (Cy5-DAA probe, flow cytometry); assay type: cell-based; conditions: Staphylococcus aureus, ST5, 2 h, read-out: MIC, FDAA
Description: (§1) Take the colony to be tested that has been cultured overnight on the plate and fully mix it in normal saline to make a uniform bacterial solution. Dilute it into Cation-Adjusted Mueller Hinton Broth (CAMHB) culture medium to make a bacterial solution with OD600=0.05. • 2. Add 45 μl antibiotic solutions of different concentrations to 96-well plates (see Table 1 for antibiotic concentration gradient settings). • 3. Add 50 μl of the bacterial solution prepared in step 1 to the 96-well plate and mix well. • 4. Add 5 μl of 10 mM Cy5-DAA probe (final concentration 0.15 mM, see FIG. 1 for its structure) into each well, mix well, and cultivate in dark for 2 hours. • 5. Add 200 μl After PBS solution is diluted, the fluorescence intensity of each sample is detected by flow cytometry. The flow detection results are shown in FIG. 4-5, showing the curve of the change of antibiotic concentration gradient and fluorescence intensity. The MIC (minimum inhibitory concentration) can be obtained by referring to this curve.

S. aureus ST59 [7] = experiment: as above; assay type: cell-based; conditions: Staphylococcus aureus, ST59, 2 h, read-out: MIC, FDAA
Description: as §1

S. aureus ST398 [8] = experiment: as above; assay type: cell-based; conditions: Staphylococcus aureus, ST398, 2 h, read-out: MIC, FDAA
Description: as §1

E. faecium Ef26 [9] = experiment: BMD susceptibility test; assay type: cell-based, Enterococcus faecium; conditions: unit assumed
S. aureus Sa23 [10] = experiment: BMD susceptibility test; assay type: cell-based, Staphylococcus aureus; conditions: unit assumed
S. aureus Sa23 [11] = experiment: FaAST (FDAA metabolic labeling method); assay type: cell-based, Staphylococcus aureus; conditions: unit assumed
Description: as §1
(§2) Bacteria with antibiotic resistance are shown in bold in the following table.

S. aureus Sa22 [12] = experiment: FaAST (FDAA metabolic labeling method); assay type: cell-based, Staphylococcus aureus; conditions: unit assumed
Description: as §1, §2

S. aureus ATCC29213 [13] = experiment: FaAST (FDAA metabolic labeling method); assay type: cell-based, Staphylococcus aureus; conditions: unit assumed
Description: as §1, §2

S. aureus ST59 [14] = experiment: Vitek 2 drug sensitivity test; assay type: cell-based, Staphylococcus aureus; on Sensibility: key: S: Drug sensitive; R: Drug resistance
E. faecalis ATCC29212 [15] = experiment: BMD susceptibility test; assay type: cell-based, Enterococcus faecalis; conditions: unit assumed
E. faecalis ATCC29212 [16] = experiment: FaAST (FDAA metabolic labeling method); assay type: cell-based, Enterococcus faecalis; conditions: unit assumed
Description: as §1, §2

S. aureus ST5 [17] = experiment: Vitek 2 drug sensitivity test; assay type: cell-based, Staphylococcus aureus; on Sensibility: key: S: Drug sensitive; R: Drug resistance
S. aureus Sa22 [18] = experiment: BMD susceptibility test; assay type: cell-based, Staphylococcus aureus; conditions: unit assumed
E. faecium Ef26 [19] = experiment: FaAST (FDAA metabolic labeling method); assay type: cell-based, Enterococcus faecium; conditions: unit assumed
Description: as §1, §2

E. faecium Ef28 [20] = experiment: BMD susceptibility test; assay type: cell-based, Enterococcus faecium; conditions: unit assumed

| Compound | BMD (MIC) (S. aureus ATCC29213 [1]) [µg/mL] | CLSI QC range (E. faecalis ATCC29212 [2]) | CLSI QC range (S. aureus ATCC29213 [3]) | FaAST (MIC) (E. faecium Ef28 [5]) [µg/mL] | BMD (MIC) (E. faecium Ef26 [9]) [µg/mL] | BMD (MIC) (S. aureus Sa23 [10]) [µg/mL] | FaAST (MIC) (S. aureus Sa23 [11]) [µg/mL] | FaAST (MIC) (S. aureus Sa22 [12]) [µg/mL] | FaAST (MIC) (S. aureus ATCC29213 [13]) [µg/mL] | BMD (MIC) (E. faecalis ATCC29212 [15]) [µg/mL] | FaAST (MIC) (E. faecalis ATCC29212 [16]) [µg/mL] | BMD (MIC) (S. aureus Sa22 [18]) [µg/mL] | FaAST (MIC) (E. faecium Ef26 [19]) [µg/mL] | other results |
| --- | --- | --- | --- | --- | --- | --- | --- | --- | --- | --- | --- | --- | --- | --- |
| CN[C@H](CC(C)C)C(=O)N[C@H]1C(=O)N[C@@H](CC(N)=O)C(=O)N[C@H]2C(=O)N[C@H]3C(=O)N[C@H](C(=O)N[C@H](C(=O)O)c4cc(O)cc(O)c4-c4cc3ccc4O)[C@H](O)c3ccc(c(Cl)c3)Oc3cc2cc(c3O[C@@H]2O[C@H](CO)[C@@H](O)[C@H](O)[C@H]2O[C@H]2C[C@](C)(N)[C@H](O)[C@H](C)O2)Oc2ccc(cc2Cl)[C@H]1O [Vancomycin, vancomycin] | 1 | 1-4 | 0.5-2 | 32 | 0.5 | 1 | 2 | 2 | 1 | 2 | 2 | 1 | 0.25 | Sensibility (S. aureus ST398 [4]): S; MIC (S. aureus ST398 [4]; Staphylococcus aureus): ≤ 0.5 µg/mL; MIC (S. aureus ST5 [6]): 4 µg/mL (≈ 2.76 µM); MIC (S. aureus ST59 [7]): 2 µg/mL (≈ 1.38 µM); MIC (S. aureus ST398 [8]): 2 µg/mL (≈ 1.38 µM); Sensibility (S. aureus ST59 [14]): S; MIC (S. aureus ST59 [14]; Staphylococcus aureus): 1 µg/mL (≈ 0.69 µM); Sensibility (S. aureus ST5 [17]): S; MIC (S. aureus ST5 [17]; Staphylococcus aureus): 1 µg/mL (≈ 0.69 µM) |
| teicoplanin | ≤ 0.25 | 0.25-1 | 0.25-1^ | 32 | 0.5 | 0.5 | 1 | 1 | 0.25 | ≤ 0.25 | 0.5 | 0.5 | 0.25 | BMD (MIC) (E. faecium Ef28 [20]): 16 µg/mL |
